Laboratory results reported in patent publication US8809368B2, “Compounds affecting gap junction activity” (Kansas State University Research Foundation, priority 2006, dated 2014).
“Also recorded” adds a separate entry of the source.

Key:
HIF1α = test: CoCl2 chemical hypoxia in R28 cells, HIF1α stabilization in nuclear extracts; format: cell-based, rat; details: PQ1 alone, up to 24 h
Method: (A) About 70% confluent retinal R28 cells were treated with 100, 200 and 500 μM CoCl2 for 24 h with or without the pre-treatment of PQ1 (10 μM, 40 min) in a cell culture chamber (5% CO2, room air, 37° C.). Caspase-3 activation was determined by Western blotting in whole cell homogenates (WCH). (B) HIF1α stabilization was measured in the nuclear extracts (NE) after treatment with 500 μM CoCl2 at different time intervals with or without the pretreatment of PQ1. […] Levels of Cx43 and phosphoCx43-Ser368 are measured in WCH. β-Actin is used as a loading control.
Approximately 70% confluent retinal R28 cells were pre-incubated with PQ1 (10 μM, 40 min), followed by CoCl2 treatments at 100, 200 and 500 μM for different time periods in a cell culture chamber (5% CO2, room air, 37° C.). Hypoxia induction was confirmed by testing the hypoxia-inducible factor 1-α (HIF1α) protein expression levels in nuclear extracts by Western blotting.
Nuclear extracts. […] The eluted nuclear proteins in the supernatant were collected and HIF1a protein levels were measured by Western blotting. […]

MEC = test: Soft agar colony growth, MEC; format: cell-based, human; details: 100 nM
Method: Various oncogenes (e.g. ras, raf, neu, src, mos) down-regulate GJIC while several tumor suppressor genes can up-regulate GJIC. […] Cells were grown in soft agar to assess their capacity for anchorage-independent growth, which is a key feature of cell transformation due to the importance of cell-cell and cell-matrix based tumor suppression. MEC and T47D cells were treated with 10, 100, 1000, and 10000 nM PQ1 for 7 days. A graphical presentation of three experiment results is presented in log scale of PQ1 concentration. […] A 100 nM PQ1 inhibits 66% of colony growth compared to controls, without PQ1 treatment or 100 nM succinic acid.
Colony Growth Using Soft Agar. Cells were treated with 0, 10, 100, 200 and 500 nM PQ1 for 7 days. Base agar plates were prepared containing 0.8% agar and 0.4% agar in Ham's F12. Cells (5×10^4 cells/33 mm^2 well) were suspended in 100 μl of Ham's F12 with 0.4% agar and plated. These plates were maintained at 37° C. for 7 days and examined for the presence of colonies. Individual colonies of 50 μm or greater were examined.

[1] = MTT assay, cell proliferation and viability, T47D cells; format: cell-based, human; details: human, T47D breast cancer cells
Method: (§1) T47D breast cancer cells were treated with various concentrations of PQ1 for 24 hours. MTT assay was performed with adherent cell cultures using a culture medium free of phenol red and of serum. Solution containing MTT was metabolized by the cells (incubation period 3 hours). After solubilization of the MTT crystals with the solubilization solution MTT, the amount of dye was measured spectrophotometrically at 540 nm.
(§2) MTT assay: This assay is done to measure cell proliferation and viability. Yellow MTT (3-(4,5-Dimethylthiazol-2-yl)-2,5-diphenyltetrazolium bromide, a tetrazole) is reduced to purple crystals, formazan in the mitochondria of living cells. A solubilization solution is added to dissolve the insoluble purple formazan product into a colored solution. The absorbance of this colored solution can be measured by a spectrophotometer. T47 D cells (20,000) were grown in 96-well plate and dosed with 10, 100, 200, 500 nM of PQ1 compound in 100 μl of complete media for 24 hours. MTT (20 μl) was added to the cells and purple formazan crystals were observed after 90 minutes. A solubilization solution (0.35 N HCl) was added to dissolve the formazan and the absorbance was measured at 595 nm wavelength with a background wavelength 690 nm by a spectrophotometer.
(§3) The cytotoxicity of PQ1 in MEC and T47D cells using MTT assay was also determined. Cells were treated with 10, 100, 200, and 500 nM PQ1 for 24 hours. MTT assay was performed according to the manufacture's recommendations. A 200 nM PQ1 has 67% cell viability compared to controls (FIG. 16). Treatments of 100 and 200 nM PQ1 have 95% and 103% MEC cell viability compared to control. However, both MEC and T47D cells decrease cell viability to 50% and 65% at 1 μM PQ1, respectively. Thus, 100-200 nM of PQ1 is sufficient to enhance GJIC activity.
(§4) MTT assay. […] After solubilization of the MTT crystals with the solubilization solution MTT, the amount of dye will be measured spectrophotometrically at 540 nm.

T47D cells = test: as above; format: cell-based, human; details: 200 nM, 24 hours
Method: as §1, §2, §3, §4

MDA-MB-231 = test: Gap junction intercellular communication, MDA-MB-231 cells; format: cell-based, human; details: Table 1

Row | Structure (SMILES) | HIF1α stabilization (HIF1α) | colony growth (MEC) | viability at 24 h, 0.2 µM ([1]; 200 nM, 24 hours, read-out: cell viability compared to controls) | viability at 24 h, 1 µM ([1]; 1 μM) | decrease in cell proliferation (T47D cells) | effect on gap junction intercellular communication (MDA-MB-231)
1 | COc1cc(NCCCN)c2nccc(C)c2c1Oc1cccc(C(F)(F)F)c1.O=C(O)CCC(=O)O [PQ1, 6-Methoxy-8-[(3-aminopropyl)amino]-4-methyl-5-(3-trifluoromethylphenyloxy) quinoline succinic acid] | did not cause activation or stabilization; also recorded: did not have any effect | no effect | 67% | 65% | 40% | –
2 | COc1cc(N)c2nccc(C)c2c1Oc1cccc(C(F)(F)F)c1 [PQ3, 8-Amino-6-methoxy-4-methyl-5-(3-trifluoromethylphenyloxy)quinoline] | – | – | – | – | – | No effect
